According to paper PMC6971092, “Identification of emulsifier potato peptides by bioinformatics: application to omega-3 delivery emulsions and release from potato industry side streams” (Scientific Reports, 2020):
Residues, ends and D or L forms follow the SMILES beside them. No end group written: not given here.

What was measured:
[1] = Solubility of peptides in sodium acetate-imidazole buffer; type: physicochemical; set-up: key: Soluble: totally soluble; Cloudy: cloudy: no totally soluble; settings: 0.2 wt.% in 10 mM sodium acetate - 10 mM imidazole buffer (pH 7); shaken 2 h at 50 °C and overnight at room temperature; visual
Description: (§1) Emulsions were produced as reported in our previous work[31]. A total amount of 2 g of 5 wt.% fish oil-in-water emulsion stabilized with 0.2 wt.% potato peptides was produced. Peptides (0.2 wt.%) were dissolved in 10 mM sodium acetate – 10 mM imidazole buffer (pH 7). For that, the peptide solutions were shaken (100 rpm) for 2 h in water bath at 50 °C and overnight at room temperature to allow complete solubilization and rehydration of the peptides (when possible). Primary homogenization was done by adding the fish oil to the peptide-buffer solution and mixing at 18,000 rpm for 30 s by using a POLYTRON PT1200E (Kinematic Inc., New York, USA). Secondary homogenization was done using a MICROSON XL2000 sonicator equipped with a P1 probe (Misonix, Inc., New York, USA). Emulsions were homogenized at an amplitude of 75% (maximum amplitude of 180 μm), running 2 passes of 30 s with a break of 1 min between passes. During sonication the emulsions were surrounded by iced water to minimize the increase in temperature. […] All emulsions were produced and tested in triplicate.
Among the 38 peptides tested, 14 peptides were not totally soluble resulting in cloudy aqueous phases (e.g. no transparent solutions were obtained and white peptides particles could be observed). […] Differences in pH are due to the acidic impurities present in the synthetic peptides used, and to the insufficient capacity of the buffer employed to keep pH constant at 7. Nonetheless, sodium acetate-imidazole buffer was preferred to phosphate buffer in order to avoid interferences of phosphate buffer in oxidative stability studies as consequence of its chelating activity.

[2] = Oxidative stability of emulsions by ESR (PBN-lipid spin adducts); settings: 5 wt.% fish oil-in-water emulsions; for oxidative stability of emulsion (generation of PBN-lipid spin adducts, in words, Fig. 4): storage 6 days in the dark at both 20 and 37 °C; for oxidative stability of emulsion at 20 °C compared to α-10, α-12 and γ-1 (in words): storage at 20 °C
Description: Oxidative stability of emulsions prepared with selected peptides was studied by electron spin resonance (ESR)[31]. ESR analysis was carried out using a benchtop MINISCOPE MS 5000 ESR spectrometer (MAGNETTECH GMBH, Germany). The instrument settings were as follows: magnetic field 320–360 mT, sweep time 60 s, modulation 0.2 mT and frequency 100 kHz. Emulsions were produced as described in section 2.3.1.2 and PBN was added as an ethanol solution (concentration of 50 mg/mL) to have 30 mM of PBN in the oil phase of the emulsion. The oxidative stability of the emulsions was determined during 6 days storage at 20 or 37 °C and samples were measured at days 0, 1 (only for 37 °C), 2, 4 and 6. For each sampling point, emulsion samples (50 μL) were transferred to borosilicate capillary tubes before they were introduced to the cavity of the ESR. Analyses were performed in triplicate at room temperature.

[3] = pH of peptide-stabilized emulsions; type: physicochemical; settings: 5 wt.% fish oil-in-water emulsion stabilized with 0.2 wt.% peptide in 10 mM sodium acetate - 10 mM imidazole buffer (pH 7)
Description: as §1
Among the 38 peptides tested, 14 peptides were not totally soluble resulting in cloudy aqueous phases (e.g. no transparent solutions were obtained and white peptides particles could be observed). […]

[4] = Droplet size of emulsions by laser diffraction; type: physicochemical; settings: mean ± SD, triplicate
Description: as §1
(§2) The droplet size distribution of the emulsions was measured by laser diffraction in a MASTERSIZER 2000 (Malvern Instruments, Ltd., Worcestershire, UK) at days 0, 1, 3 and 6 during storage in dark at room temperature (~22 °C)[31]. Each emulsion was diluted in recirculating water (3000 rpm), until it reached an obscuration of 12%. The refractive indices of sunflower oil (1.469) and water (1.330) were used as particle and dispersant, respectively. Results are given in volume mean diameter (D4,3). Measurements were made in triplicate. Due to the low volume of emulsions produced, creaming was determined qualitatively by observing the appearance of the emulsions. Peptides forming emulsions with small droplet sizes and no creaming were selected for further study.

[5] = Zeta potential of emulsions; type: physicochemical; settings: 5 wt.% fish oil-in-water emulsion, 0.2 wt.% peptide; after one day of storage; 10 μL emulsion in 5 mL buffer; 25 °C; mean ± SD, triplicate
Description: as §1
The zeta potential of the emulsions was measured after one day of storage in a ZETASIZER NANO ZS (Malvern instruments Ltd., Worcestershire, UK) with a DTS1070 cell at 25 °C[31]. […] The zeta potential range was set to −100 to +50 mV and the samples were analyzed with 100 runs. […]

[6] = Qualitative observation of creaming of emulsions; type: physicochemical; set-up: key: 1: no creaming; 2: creaming; 3: oil layer above the emulsion; 4: phase separation
Description: as §1, §2

[7] = Iron (Fe2+) chelating activity; type: biochemical; settings: 0.2 wt.% at pH 7; data not shown
Description: Peptides were dissolved in 10 mM sodium acetate - 10 mM imidazole buffer (pH 7) at 0.2 wt.%. 1 1,1-Diphenyl-2-picrylhydrazyl (DPPH) radical scavenging activity, iron (Fe^2+) chelating activity and ferric (Fe^3+) reducing power were measured as described elsewhere.

| Compound | Solubility of peptides [1] | other results |
| --- | --- | --- |
| LNIQFNI [β-24] | Cloudy | – |
| KYLMQVLQEKLGE [α-18] | Cloudy | – |
| ELDSRLSYRIISTFWGALGGDVYL [β-21] | Cloudy | – |
| IGSSSHFGPHIFEGELLNIQFDIS [β-29] | Cloudy | – |
| FIPLSTNIFEDQLLNIQFNIPT [β-23] | Cloudy | – |
| AKDIVPFYFEHGPHIFN [α-14] | Soluble | – |
| VHQNGKRRLALVKDNPLDVSFK [β-28] | Soluble | – |
| HQNGKRRLALV [γ-39] | Soluble | – |
| LLTAMITTPNENNRP [γ-37] | Soluble | – |
| DSPETYEEALKRFAKLLSD [α-12] | Soluble | oxidative stability of emulsion (generation of PBN-lipid spin adducts, in words, Fig. 4) [2]: lowest oxidative stability |
| FAKLLSDRKKLRANK [γ-46] | Soluble | – |
| NRPFAAAKDIVPFYFEHGPHIFN [α-13] | Soluble | – |
| DTNGKELNPNSSYRIISIGRGALGGDVYL [γ-42] | Cloudy | – |
| CC(C)C[C@H](NC(=O)[C@H](CS)NC(=O)[C@H](Cc1ccccc1)NC(=O)[C@H](CCC(N)=O)NC(=O)[C@H](CC(=O)O)NC(=O)[C@H](CC(=O)O)NC(=O)[C@H](CO)NC(=O)[C@H](CO)NC(=O)[C@H](Cc1ccccc1)NC(=O)[C@@H]1CCCN1C(=O)[C@@H](N)CS)C(=O)N[C@@H](CCCCN)C(=O)N[C@H](C(=O)NCC(=O)N[C@H](C(=O)O)C(C)C)C(C)C [β-22] (H-CPFSSDDQFCLKVGV-OH) | Soluble | oxidative stability of emulsion at 20 °C compared to α-10, α-12 and γ-1 (in words) [2]: significantly more oxidatively stable |
| VGVVIQNGKRR [γ-45] | Soluble | – |
| GIIPATILEFLEGQLQEVDNN [γ-48] | Soluble | – |
| ILEFLEGQLQEVDN [α-16] | Soluble | – |
| KYLMQVLQEKL [α-19] | Soluble | – |
| CC[C@H](C)[C@H](NC(=O)[C@@H](NC(=O)[C@@H](NC(=O)CNC(=O)[C@@H](NC(=O)[C@H](CCCCN)NC(=O)[C@H](C)NC(=O)[C@H](CS)NC(=O)[C@H](Cc1ccccc1)NC(=O)[C@H](CC(N)=O)NC(=O)[C@H](CC(=O)O)NC(=O)[C@H](CC(=O)O)NC(=O)[C@H](CCCNC(=N)N)NC(=O)[C@@H](N)CS)C(C)C)C(C)C)C(C)C)C(=O)O [γ-34] (H-CRDDNFCAKVGVVI-OH) | Cloudy | – |
| GIKGIIPAIILEFLEGQLQEVDNNKDAR [γ-1] | Soluble | oxidative stability of emulsion (generation of PBN-lipid spin adducts, in words, Fig. 4) [2]: lowest oxidative stability |

| Compound | Solubility of peptides [1] | other results |
| --- | --- | --- |
| TPNENNRPFAAAKDIV [γ-47] | Soluble | – |
| KYDGKYLMQVLQE [α-17] | Cloudy | – |
| KDNPETYEEALKRFAKLLS [γ-41] | Soluble | – |
| LGGDVYLGKSPNSDAPCP [β-31] | Soluble | – |
| FDVIGGTSTGGLLTAMITTPNENNRP [γ-36] | Soluble | oxidative stability of emulsion (generation of PBN-lipid spin adducts, in words, Fig. 4) [2]: highest oxidative stability |
| NPNSSYRIISI [γ-43] | Soluble | – |
| Sodium caseinate | Soluble | pH of emulsion [3]: 6.9; D4,3 (μm) Day 1 ([4]; as Day 0, day 1 of storage in dark at room temperature (~22 °C)): 1.1 ± 0.2 μm; D4,3 (μm) Day 3 ([4]; as Day 0, day 3 of storage in dark at room temperature (~22 °C)): 0.9 ± 0.2 μm; D4,3 (μm) Day 6 ([4]; as Day 0, day 6 of storage in dark at room temperature (~22 °C)): 1.0 ± 0.2 μm; D4,3 (μm) Day 0 ([4]; volume mean diameter, 5 wt.% fish oil-in-water emulsion, 0.2 wt.% peptide, pH 7 buffer, laser diffraction, day 0): 1.1 ± 0.2 μm; Zeta potential (mV) [5]: −41.5 ± 1.1 mV; Observations Day 0 (creaming) ([6]; appearance of 5 wt.% fish oil-in-water emulsion, 0.2 wt.% peptide, day 0): 1; Observations Day 1 (creaming) ([6]; appearance of emulsion, day 1 of storage at ~22 °C): 1; Observations Day 6 (creaming) ([6]; appearance of emulsion, day 6 of storage at ~22 °C): 1; oxidative stability of emulsion (generation of PBN-lipid spin adducts, in words, Fig. 4) [2]: highest oxidative stability; Fe2+ chelating activity [7]: 98.5 ± 0.2% |
| GKELDPRLSYRI [β-26] | Soluble | – |
| FCLKVGVVHQNGKRRLALVKDNP [γ-38] | Soluble | oxidative stability of emulsion at 20 °C compared to α-10, α-12 and γ-1 (in words) [2]: significantly more oxidatively stable |
| FCLKVGVIHQNGKRRLALVK [γ-49] | Soluble | oxidative stability of emulsion (generation of PBN-lipid spin adducts, in words, Fig. 4) [2]: highest oxidative stability |
| SSDDQFCLKVGVV [γ-40] | Cloudy | oxidative stability of emulsion (generation of PBN-lipid spin adducts, in words, Fig. 4) [2]: highest oxidative stability |
| DNFCAKVGVVIQNGKRR [γ-44] | Cloudy | – |
| IPATILEFLEGQLQEVDNN [α-15] | Soluble | – |
| RDDNFCAKVGVVI [γ-35] | Cloudy | – |
| ELDSRLSYRIISTFWGALGGDVYLGKSPN [β-20] | Cloudy | – |
| DDNFCAKVGVVIQ [β-30] | Cloudy | – |
| KKPVSKDSPETYEEALKRFAKLLSDRKKL [α-10] | Soluble | oxidative stability of emulsion (generation of PBN-lipid spin adducts, in words, Fig. 4) [2]: lowest oxidative stability |
| EALKRFAKLLSD [α-11] | Soluble | – |
| LNIQFNIPTPKLC [β-27] | Cloudy | oxidative stability of emulsion (generation of PBN-lipid spin adducts, in words, Fig. 4) [2]: highest oxidative stability |
